The text below walks through data of article PMC7580722, “Design of new disubstituted imidazo[1,2-b]pyridazine derivatives as selective Haspin inhibitors. Synthesis, binding mode and anticancer biological evaluation” (Journal of Enzyme Inhibition and Medicinal Chemistry, 2020).

The subject of one test is RPE-1. The test can be described thus: Cell viability, monolayer (2D), MTS assay. It counts as cell-based. To be noted: Homo sapiens, 48 h. Background: Tetrazolium dyes change colour on reduction, which living cells bring about.
A further test concerns U-2 OS. The test can be described thus: Cell viability, monolayer (2D), MTS assay. As to conditions: Homo sapiens, U2OS, 48 h. In kind it is cell-based.
Test [1] relates to Haspin activity (H3T3ph) in U-2 OS cells. The test is described as follows: In-cell Haspin activity, H3T3ph immunofluorescence. It counts as cell-based, human. To be noted: 24 h.
The next test relates to RnDYRK1A. The test is described as follows: DYRK1A kinase assay. In kind it is biochemical, Rn (rat). To be noted: SI = IC50 kinase X/IC50 Haspin. As for the experimental part: (§1) Values are IC50 expressed in µM and calculated from dose–response curves (each point on the curves was performed in triplicate). Selectivity indexes (SI; in brackets) are calculated as follows: SI = IC50 kinase X/IC50 Haspin. ND: not determined. *IC50 values obtained using the ADP-Glo methodology (see Experimental section, Supplementary Material). […]
The reaction was carried out as described in general procedure A using 4 (0.150 g, 0.58 mmol, 1 equiv.), 2-aminopyrimidine-5-boronic acid (0.122 g, 0.88 mmol, 1.5 equiv.) and Cs2CO3 (0.575 g, 1.75 mmol, 3 equiv.). The […]
The reaction was carried out as described in general procedure A using 4 (0.100 g, 0.39 mmol, 1 equiv.), 1-naphthaleneboronic acid (0.083g, 0.47 mmol, 1.2 equiv.) and Cs2CO3 (0.381 g, 1.17 mmol, 3 equiv.). The crude […]
(§2) Recombinant protein kinases were expressed and purified from E. coli (HsHaspin kinase domain aa470-798, HsCdk5/p25, RnDYRK1A kinase domain aa1-499, HsPIM1, MmCLK1) or baculovirus/Sf9 cells (HsCdk2/Cyclin A, HsCdk9/Cyclin T). […] The wet filter-bound radioactivity was determined in the presence of 20 µl scintillation fluid (GE healthcare) with a TopCount® Scintillation and Luminescence Counter (PerkinElmer). IC50 values were calculated from dose-response curves […]

The test system of a further test is HBL100. The test can be described thus: Cell viability, monolayer (2D), MTS assay. In kind it is cell-based. As to conditions: Homo sapiens, HBL-100, 48 h.
The subject of a further test is HsCdk5/p25. The test can be described thus: CDK5 kinase assay. It counts as biochemical, human. To be noted: SI = IC50 kinase X/IC50 Haspin. As for the experimental part: as §1
The reaction was carried out as described in general procedure A using 4 (0.150 g, 0.58 mmol, 1 equiv.), 2-aminopyrimidine-5-boronic acid (0.122 g, 0.88 mmol, 1.5 equiv.) and Cs2CO3 (0.575 g, 1.75 mmol, 3 equiv.). The crude mixture was purified by flash chromatography on silica gel (EtOAc) to afford 28 (0.115 g, 73 %) as a yellow […]
The reaction was carried out as described in general procedure A using 4 (0.100 g, 0.39 mmol, 1 equiv.), 1-naphthaleneboronic acid (0.083g, 0.47 mmol, 1.2 equiv.) and Cs2CO3 (0.381 g, 1.17 mmol, 3 equiv.). […]
as §2

Take `c1cc2[nH]ncc2cc1-c1cnc2ccc(OC[C@@H]3CNCCO3)nn12` [Compound 21]: the EC50 with RPE-1 is 4.6 µM; with U-2 OS, 5.2 µM; in the test with HBL100, above 10 µM. In addition, the “H3T3ph signal remaining in prometaphase cells (% of ctrl)” value in test [1] (0.5 µM) was 2.4%. Besides, the inhibition at 0.05 µM in test [1] (Homo sapiens, U2OS, 0.05 µM, read-out: inhibition of cellular Haspin activity) is above 80%. The “selectivity for DYRK1A vs Haspin” value in the test on RnDYRK1A worked out at 50 fold. Further, the “selectivity for CDK5 vs Haspin” value with HsCdk5/p25 is given as 150 fold.

What is called EC50 is the concentration needed to bring the measured effect to its halfway point. Lower therefore signals a more potent agent. For orientation: inhibition means the share of the control response that was lost under treatment.
